Experimental data as given in paper PMC3684770 (Free Radical Biology & Medicine, 2013).
pEC50, pIC50: −log10 of the molar value. Where “and” joins values, the source holds several entries; their conditions need not be identical. Identical values can stand only once.

What was measured:
[1] = tested on: NQO1 and HO-1 gene expression; experiment: Q-RTPCR in astrocytes from SOD1G93A transgenic mice; format: cell-based, mouse; conditions: G93A SOD1 astrocytes, 24-h pretreatment at EC90 (andrographolide also EC50)
Protocol: (§1) Nrf2 Target gene expression was determined using Q-RTPCR as described previously using the following primers: Ho-1 forward primer, cac ttc gtc aga ggc ctg cta; Ho-1 reverse primer, gcg gtg tct ggg atg agc ta; Nqo1 forward primer, cgc ctg agc cca gat att gt; Nqo1 reverse primer, act gca atg gga act gaa ata tca; GAPDH forward, gaa acc tgc caa gta tga tga cat; GAPDH reverse, ggt cct cag tgt agc cca aga t.

[2] = tested on: NSC34 cells; experiment: NSC34 oxidative stress assay (serum withdrawal, DCF)
Protocol: (§3) Media were then replaced with serum-free, phenol-free media for 5 h.

[3] = tested on: 1321N1 astrocyte cell line; experiment: 1321N1 oxidative stress assay (serum withdrawal, DCF)
Protocol: as §3

[4] = tested on: HO-1 and NQO1 gene expression; experiment: Q-RTPCR of Nrf2-regulated genes in primary mouse astrocytes; format: cell-based; conditions: 24-h treatment at EC50 and EC90
Protocol: as §1

[5] = tested on: HO-1 and NQO1 gene expression; experiment: Q-RTPCR of Nrf2-regulated genes in C6 cells; format: cell-based, rat; conditions: C6, 24-h treatment at EC50 and EC90
Protocol: as §1

[6] = tested on: NQO1 protein expression; experiment: Western blot NQO1 in wild-type MEFs; format: cell-based, mouse; conditions: EC90 concentration, 24 h
Protocol: Cells were isolated and lysed in a RIPA buffer containing protease inhibitor cocktail (Roche), quantified for protein content by Bradford assay, and loaded 30 μg per sample. Samples were run on a 12.5% acrylamide gel under reducing conditions with a prestained marker and transferred to polyvinylidene fluoride membrane and blocked in 5% milk. Mouse anti-alpha-tubulin, clone DM1A (Sigma), and rabbit anti-NQO1 (kind gift from Prof. John Hayes, University of Dundee) were used at 1 in 1000 dilution in Tris-buffered saline containing Tween. Polyclonal goat anti-mouse (Abcam-Ab97040) and polyclonal goat anti-rabbit (Dako Cat. No. P0448), horseradish peroxidase-conjugated secondary antibodies were used for detection of relevant primary antibodies. Bands were visualised by enhanced chemiluminescence reagents (Geneflow EZ-ECL kit). Relative band intensities were captured, using subsaturation, and quantified using a Gbox iChem XT digital imaging system (Syngene).

[7] = tested on: Nrf2-ARE pathway; experiment: ARE reporter assay in CHO 4xARE-TK-GFP cells (Spectrum library hits)
[8] = tested on: heme oxygenase 1 (HO-1); experiment: HO-1 immunofluorescence staining in primary mouse astrocytes; format: cell-based; conditions: EC90 concentration, 24 h
[9] = tested on: primary mouse motor neurons; experiment: Primary motor neuron/astrocyte coculture, menadione stress; format: cell-based; conditions: 24-h pretreatment, 6 h 10 µM menadione
Protocol: Mouse glial cultures were established based on published methods [[68,69]]. Primary spinal cord motor neurons (MNs) were cultured from E13.5 C57Bl/6 mouse embryos as described previously. Cocultures were allowed to establish for 2 weeks and neuroprotection assays performed. Cocultures were exposed to drug or vehicle for 24 h followed by a 6-h treatment with menadione (10 μM) to induce oxidative stress or with no stress to determine the effect of drug alone. Following stress treatment, coverslips were washed 3 times, fixed, and permeabilised, and MNs immunostained with SMI32 (Covance, UK). Total MNs were counted by fluorescence microscopy in a 1.5 cm^2 area per coverslip. A minimum of three repeats in triplicate were performed per condition. Both vehicle and drug treatments were counted with and without stress treatment, and results were analysed by two-way ANOVA using Bonferroni post tests.

[10] = tested on: P-glycoprotein; design: method as in PMID 19093450; conditions: cited from earlier work
[11] = tested on: primary mouse astrocytes; experiment: Total glutathione assay in primary mouse astrocytes and conditioned media; format: cell-based; conditions: 24-h pretreatment
Protocol: Primary astrocytes were grown to confluency in 24-well plates and then treated with drug (or 0.05% DMSO vehicle) in phenol red-free DMEM containing 10% FBS and penicillin/streptomycin for 24 h. Conditioned medium was collected and astrocytes were then washed in ice-cold PBS before addition of 250 μl/well of sulphosalicylic acid (SSA, 5% (w/v)). Plates were frozen at −80 °C and thawed at 37 °C, twice, and then incubated at 4 °C for 15 min. The supernatant was removed and centrifuged at 13,000 g for 5 min. Conditioned medium samples were incubated at 80 °C for 15 min and then centrifuged at 13,000 g for 5 min. Samples were either used immediately or stored at −80 °C. Reaction mixture (150 μl/well; 100 mM potassium phosphate buffer, pH 7.0, 1 mM EDTA, 6 Units/ml glutathione reductase, 1.5 mg/ml 5,5′-dithiobis(2-nitrobenzoic acid)) was added to 10 μl of each sample or glutathione standard (0–50 μM reduced glutathione) in a 96-well plate and incubated at room temperature for 5 min before addition of 50 μl/well of NADPH solution (0.16 mg/ml). A412nm was measured every minute for 15 min and the total glutathione concentration (GSH + GSSG) was calculated from initial rates. Samples were tested in triplicate.

[12] = tested on: C6 astrocyte cell line; experiment: C6 oxidative stress assay (serum withdrawal, DCF)
Protocol: as §3

[13] = tested on: primary fibroblasts from ALS patients; experiment: Oxidative stress assay in ALS patient and control fibroblasts; format: cell-based, human; conditions: 4 µM
Protocol: Fibroblasts were obtained from human controls (n=3) and ALS patients with I113T SOD1 mutations (n=3) and sporadic ALS patients (n=2). […] The cells were incubated at 37 °C/5% CO2 overnight. The following day the media were removed and the cells were washed with 200 µl 1XP BS. Phenol red-free DMEM/F12 media (Sigma D6434) was added in the presence of 10% serum/2 mM Gln (++), 10% serum/0 mM Gln (+−), or 0% serum/0 mM Gln (−−). Cells were incubated at 37 °C/5% CO2 for 5 h.
Carboxy-H2DCFDA fluorescence was normalised to live cell number (total EthD1 signal after freeze/thaw – EthD1 signal after assay) to compare between the different cell lines. Data were analysed by one-way ANOVA with Bonferroni post tests using GraphPad Prism
DMEM/F12 (50 µl) media were added in the presence of 10% serum/0 mM Gln (+−) and the cells were incubated at 37 °C and 5% CO2 for 5 h.
The data were tested for normality and analysed by one-way ANOVA using GraphPad Prism.

[14] = tested on: primary fibroblasts from ALS patients; experiment: Menadione-induced cell death in fibroblasts (MTT); format: cell-based, human; conditions: sporadic and I113T SOD1 ALS fibroblasts, 4 µM
Protocol: The method used was essentially as described previously. Briefly methylthiazolyldiphenyl-tetrazolium bromide (MTT) was added to the cells and a blank well to a final concentration 0.5 mg/ml and incubated at 37 °C for 1–3 h depending on the cell line used. Cells and reaction product were solubilised in 20% SDS/50% DMF for 1 h with shaking at room temperature before reading the absorbance at 595 nm.

[15] = tested on: SOD1G93A transgenic mice; experiment: SOD1G93A transgenic mouse model of ALS; format: in vivo
Protocol: Pharmacology experiments in SOD1^G93A transgenic mice were conducted according to the published guidelines for studies in this model. […] The litters were split to enable an even distribution of sex and parentage between the two comparison groups and the groups randomly assigned to treatment or control. […] Behavioural assessment was carried out blinded to treatment group. Rotarod training was performed over 3 days with 2 trials per day. Subsequently, the rotarod test was performed once per week in the afternoon. On each day, mice were tested twice with a rest period in between tests. The best score was taken for analysis. […] Latency to fall (s) was recorded in seconds for each mouse. […] They were placed on the catwalk apparatus in complete darkness and the recording of gait patterns was performed in a separate room. Multiple runs were recorded for each mouse and three selected for analysis. Processing of gait data was performed using the dedicated software, with the assignment of limbs performed manually and subsequent automated calculation of gait parameters.
Specimens were incubated overnight in 20% sucrose and then embedded in OCT embedding matrix. Thirty five-micrometer-thick longitudinal sections were collected. […] Images were captured on an Incell 2000 and innervated (yellow) or denervated (red) end-plates were counted with a minimum of 1000 NMJs counted per animal.

[16] = tested on: Nrf2-ARE pathway; experiment: ARE reporter assay in NSC34 cell line (NSC34-ARE); format: cell-based, mouse
Excerpt: (§2) Chinese hamster ovary (CHO), NSC34 mouse motor neuronal cells […] The ARE-TK-GFP and TK-GFP reporter constructs were a kind gift from William E. Fahl McArdle Laboratory for Cancer Research, University of Wisconsin. […] The NSC34 cell lines stably expressing G93A mutant hSOD1 have been described previously. […] Mouse embryonic fibroblasts were generated and maintained as described previously.

[17] = Pharmacokinetic analysis in C57Bl/6 mice; format: in vivo, mouse; conditions: C57Bl/6, mouse, brain / plasma; iv 1 mg/kg; read-out: brain uptake (AUCinfinity brain / AUCinfinity plasma)
Protocol: Pharmacokinetic studies were performed by Pharmidex (London, UK). […] All concentrations were calculated with reference to the relevant standard curve. An extraction buffer (EB) solution of acetonitrile with 0.1% formic acid (Fisher Scientific, HPLC grade) and 500 ng/ml of propranolol as the internal standard (IS) was used for in all extraction protocols.

[18] = tested on: HO-1 gene expression; experiment: Pharmacodynamic analysis: gene expression in spinal cord; format: in vivo, mouse; conditions: 5 mg/kg sc, 48 h postdosing
Excerpt: RNA was isolated using Qiagen RNeasy mini kit and Q-RTPCR performed on HO-1 and NQO-1 genes as described previously.

[19] = tested on: Nrf2-ARE pathway; experiment: ARE reporter assay in C6 astrocyte cell line (C6-ARE); format: cell-based, rat
Excerpt: as §2

[20] = minimum dose at which toxicity was observed

SMILES: C=C1CC[C@@H]2[C@](C)(CO)[C@H](O)CC[C@@]2(C)[C@@H]1C/C=C1/C(=O)OC[C@H]1O [Andrographolide]
- transcripts for NQO1 and HO1 [1]: significant increase in transcripts
- Emax ([2]; Mus musculus, NSC-34, 24 h, read-out: NSC34 oxidative stress assay Max reduction): 0%
- NSC34 oxidative stress assay Toxic dose [2, 20]: 10 µM
- Emax ([3]; Homo sapiens, 1321-N1, 24 h, read-out: 1321N1 oxidative stress assay Max reduction): 35%
- pIC50 ([3]; Homo sapiens, 1321-N1, read-out: 1321N1 oxidative stress assay IC50): 6.30
- 1321N1 oxidative stress assay Toxic dose [3, 20]: 10 µM
- HO-1 and NQO1 gene expression [4]: statistically significant changes in gene expression
- HO-1 and NQO1 gene expression [5]: statistically significant changes in gene expression
- NQO1 protein expression, fold over vehicle [6]: 3.6 fold and > 3 fold
- pEC50 ([7]; Cricetulus griseus): 6.13
- maximal fold induction ([7]; Cricetulus griseus, CHO, 24 h, read-out: Fold GFP induction): 3.61
- Toxic dose ([7]; lowest dose at which a reduction in GFP fluorescence was observed): 100 µM
- HO-1 staining index [8]: significant increase in HO-1 staining
- motor neuron numbers after menadione [9]: significant neuroprotective effects
- P-glycoprotein substrate [10]: substrate
- total glutathione levels [11]: enhance glutathione production
- Emax ([12]; Rattus norvegicus, Astrocyte, 24 h, read-out: C6 oxidative stress assay Max reduction): 69%
- pIC50 ([12]; Rattus norvegicus, Astrocyte, read-out: C6 oxidative stress assay IC50): 6.72
- C6 oxidative stress assay Toxic dose [12, 20]: 10 µM

SMILES: CN1CCc2cccc3c2[C@@H]1Cc1ccc(O)c(O)c1-3 [S[+]-apomorphine]
- transcripts for NQO1 and HO1 [1]: significant increase in transcripts
- HO-1 and NQO1 gene expression [4]: statistically significant changes in gene expression
- HO-1 and NQO1 gene expression [5]: statistically significant changes in gene expression
- reduction of oxidative stress (DCF) in control fibroblasts ([13]; control fibroblasts): nonsignificant
- basal oxidative stress (DCF) in patient fibroblasts ([13]; sporadic and I113T SOD1 ALS fibroblasts, 24 h): significant reduction in basal oxidative stress
- menadione-induced cell death (MTT) [14]: significantly attenuated cell death
- time taken to reach a 20% decline in rotarod performance (median) ([15]; 5 mg/kg sc daily from Day 21, vehicle 6 weeks): 8 weeks
- oxidised glutathione levels in spinal cord ([15]; 60 days of age, vehicle 7.1): 4.2 µM
- gastrocnemius muscle innervation ([15]; 60 days of age, vehicle 28.1%): 39.5%
- survival ([15]; failure of the righting response within 10 s): did not observe a significant improvement in survival
- fore-limb and hind-limb stride length (gait analysis) ([15]; later stages of disease): significant delay in decline
- motor neuron numbers at end-stage ([15]; mouse, in vivo): did not observe a significant improvement
- motor neuron numbers after menadione [9]: significant neuroprotective effects
- activation of Nrf2-ARE reporter [16]: shows some activation
- concentration showing activation of Nrf2-ARE reporter [16]: ≥ 1 µM
- Kp [17]: 2.28
- total glutathione levels [11]: enhance glutathione production
- HO-1 gene induction in whole spinal cord [18]: 3.5 fold
- potency of Nrf2-ARE activation compared with the R[–] enantiomer ([19]; C6 cells): equally potent
- pEC50 ([19]; Rattus norvegicus, C6 astrocyte cell line, concentration used in fibroblast assay, read-out: approximate EC50 concentration): ~5.40
